ChEMBL document CHEMBL3714750, “Aryl sulfonamides” (2008)

Target: T1, C-C chemokine receptor type 9 (Homo sapiens, UniProt P51686)
T1 sequence (P51686 whole entry): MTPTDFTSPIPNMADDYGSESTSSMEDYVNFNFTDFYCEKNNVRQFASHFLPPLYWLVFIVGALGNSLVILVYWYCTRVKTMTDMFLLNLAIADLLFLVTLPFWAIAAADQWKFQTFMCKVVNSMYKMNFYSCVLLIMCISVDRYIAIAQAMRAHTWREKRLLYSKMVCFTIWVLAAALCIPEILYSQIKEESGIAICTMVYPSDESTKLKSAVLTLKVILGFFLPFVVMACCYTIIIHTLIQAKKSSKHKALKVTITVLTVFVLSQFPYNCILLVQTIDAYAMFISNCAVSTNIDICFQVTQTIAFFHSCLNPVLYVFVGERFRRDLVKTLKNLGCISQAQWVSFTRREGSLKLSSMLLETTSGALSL
Assay: Antagonist activity against CCR9 in human MOLT4 cells assessed as inhibition of human recombinant TECK-induced calcium response pre-treated before TECK stimulation by Flou-4-AM dye based FLIPR assay
Assay type: functional, cell-based, MOLT-4

Structure (SMILES) | IC50 [nM]
CC(C)(C)c1ccc(S(=O)(=O)Nc2ccc(Cl)cc2C(=O)c2cc[nH]n2)cc1 | < 1000
O=C(c1ccncc1)c1cc(Cl)ccc1NS(=O)(=O)c1ccc(N2CCN(CC(F)(F)F)CC2)cc1 | > 1000
O=C(c1ccncc1)c1cc(Cl)ccc1NS(=O)(=O)c1ccc(N2CCC2)cc1 | < 1000
COc1ccc(S(=O)(=O)Nc2ccc(Cl)cc2C(=O)N2CCCCC2)cc1 | > 1000
CC(C)(C)c1ccc(S(=O)(=O)Nc2ccc(Cl)cc2C(=O)c2ccc[n+]([O-])c2)cc1 | < 1000
O=C(c1cccnc1)c1cc(F)c(F)cc1NS(=O)(=O)c1ccc(N2CCOCC2)cc1 | < 1000
Cc1ccc(C(=O)c2cc(Cl)ccc2NS(=O)(=O)c2ccc(C(C)(C)c3cocn3)cc2)cn1 | < 1000
O=C(c1ccncc1)c1cc(Cl)ccc1NS(=O)(=O)c1ccc(N2CCCC2)cc1 | < 1000
CC(C)(c1ncco1)c1ccccc1S(=O)(=O)Nc1ccc(Cl)cc1C(=O)c1ccncc1 | < 1000
CC(C)(C)c1ccc(S(=O)(=O)Nc2ccc(Cl)cc2C(=O)c2ccncn2)cc1 | < 1000
Cc1cc(C(=O)c2cc(Cl)ccc2NS(=O)(=O)c2ccc(C3(C)CCOCC3)cc2)ccn1 | < 1000
CN(C)C(=O)CCc1ccc(S(=O)(=O)Nc2ccc(Cl)cc2C(=O)c2ccncc2)cc1 | > 1000
Cn1nc(C(=O)c2cc(Cl)ccc2NS(=O)(=O)c2ccc(C(C)(C)C)cc2)c2ccccc21 | > 1000
CC(C)(c1ccc(S(=O)(=O)Nc2ccc(Cl)cc2C(=O)c2ccncc2)cc1)c1cocn1 | < 1000
Cc1cc(C(=O)c2cc(Cl)ccc2NS(=O)(=O)c2ccc(OC(C)C)cc2)cc[n+]1[O-] | < 1000
Cn1nncc1C(=O)c1cc(Cl)ccc1NS(=O)(=O)c1ccc(C(C)(C)C)cc1 | < 1000
O=C(c1cccnc1)c1cc(Cl)ccc1NS(=O)(=O)c1ccc(N2CCOCC2)cc1 | < 1000
CC(C)(C)c1ccc(S(=O)(=O)Nc2ccc(Cl)cc2C(=O)c2ccnc(Cl)c2)cc1 | < 1000
CC(C)(C)c1ccc(S(=O)(=O)Nc2ccc(Cl)cc2C(=O)c2cccnc2)cc1 | < 1000
CC(C)(C)OC(=O)n1c(-c2ccc(S(=O)(=O)Nc3ccc(Cl)cc3C(=O)c3ccncc3)cc2)cc2ccccc21 | > 1000
COC(=O)CCc1ccc(S(=O)(=O)Nc2ccc(Cl)cc2C(=O)c2cccnc2)cc1 | < 1000
Cc1ccc(C(=O)c2cc(Cl)ccc2NS(=O)(=O)c2ccc(OC(F)(F)F)cc2)cn1 | < 1000

Structure (SMILES) | IC50 [nM]
C[C@@H]1CN(c2ccc(S(=O)(=O)Nc3ccc(Cl)cc3C(=O)c3cc[n+]([O-])cc3)cc2F)C[C@H](C)O1 | < 1000
C[C@@H]1CN(c2ccc(S(=O)(=O)Nc3ccc(Cl)cc3C(=O)c3ccc[n+]([O-])c3)cc2)C[C@H](C)O1 | < 1000
O=C(c1ccncc1)c1cc(Cl)ccc1NS(=O)(=O)c1ccc(N2CCOCC2)c(F)c1 | < 1000
CC(C)Sc1ccc(S(=O)(=O)Nc2ccc(Cl)cc2C(=O)c2ccncc2)cc1 | < 1000
O=C(c1ccncc1)c1cc(Cl)ccc1NS(=O)(=O)c1ccc(N2CCSCC2)cc1 | < 1000
CC(C)(c1ccc(S(=O)(=O)Nc2ccc(Cl)cc2C(=O)c2cccnc2)cc1)c1ncco1 | < 1000
CC(C)Oc1ccc(S(=O)(=O)Nc2ccc(Br)cc2C(=O)c2ccncc2)cc1 | < 1000
O=C(c1ccncc1)c1cc(Cl)ccc1NS(=O)(=O)c1ccc(N2CCS(=O)(=O)CC2)cc1 | > 1000
O=C(c1cc[n+]([O-])cc1)c1cc(Cl)ccc1NS(=O)(=O)c1ccc(N2CCOCC2)cc1 | < 1000
Cc1ccc(C(=O)c2cc(Cl)ccc2NS(=O)(=O)c2ccc(C(C)(C)c3ncco3)cc2)cn1 | < 1000
CCOC(=O)CNC(=O)c1cc(Cl)ccc1NS(=O)(=O)c1ccc(OC)cc1 | > 1000
O=C(c1ccncc1)c1cc(Cl)ccc1NS(=O)(=O)c1ccc(-c2ncco2)cc1 | < 1000
C[C@@H]1CN(c2ccc(S(=O)(=O)Nc3ccc(Cl)cc3C(=O)c3ccncc3)cc2)C[C@H](C)O1 | < 1000
Cc1ncccc1C(=O)c1cc(Cl)ccc1NS(=O)(=O)c1ccc(C2(C)CCOCC2)cc1 | < 1000
COc1ccc(S(=O)(=O)Nc2ccc(Cl)cc2C(=O)c2ccncc2)cc1 | < 1000
Cc1nnc(-c2ccc(S(=O)(=O)Nc3ccc(Cl)cc3C(=O)c3cccnc3)cc2)o1 | > 1000
CC(C)(C)c1ccc(S(=O)(=O)Nc2ccc(Cl)cc2C(=O)c2cc[n+]([O-])c(Cl)c2)cc1 | < 1000
O=C(c1ccncc1)c1cc(Cl)ccc1NS(=O)(=O)c1ccc(CCc2ncco2)cc1 | < 1000
COc1ccc(S(=O)(=O)Nc2ccc(Cl)cc2C(=O)c2nccn2C)cc1 | > 1000
CC(=O)c1ccc(S(=O)(=O)Nc2ccc(Cl)cc2C(=O)c2ccc(C)nc2)cc1 | > 1000
CC(C)Oc1ccc(S(=O)(=O)Nc2ccc(Cl)cc2C(=O)c2ccncc2)cc1 | < 1000
Cc1ccc(C(=O)c2cc(Cl)ccc2NS(=O)(=O)c2ccc(S(C)(=O)=O)cc2)c[n+]1[O-] | < 1000

Structure (SMILES) | IC50 [nM]
Cn1cc(C(=O)c2cc(Cl)ccc2NS(=O)(=O)c2ccc(C(C)(C)C)cc2)nn1 | < 1000
CC(C)(C)c1ccc(S(=O)(=O)Nc2ccc(Cl)cc2C(=O)c2ccc(N3CCOCC3)nc2)cc1 | > 1000
O=C(c1ccncc1)c1cc(Cl)ccc1NS(=O)(=O)c1ccc(C(F)(F)F)cc1 | > 1000
CC(C)(CO)c1ccc(S(=O)(=O)Nc2ccc(Cl)cc2C(=O)c2ccncc2)cc1 | < 1000
Cc1ccc(C(=O)c2cc(Cl)ccc2NS(=O)(=O)c2ccc(C3(C)CCOCC3)cc2)c[n+]1[O-] | < 1000
CC(C)(C)c1ccc(S(=O)(=O)Nc2ccc(F)c(F)c2C(=O)c2cccnc2)cc1 | < 1000
CN(C)C(=O)C(C)(C)c1ccc(S(=O)(=O)Nc2ccc(Cl)cc2C(=O)c2ccncc2)cc1 | > 1000
Cc1ccc(C(=O)c2cc(Cl)ccc2NS(=O)(=O)c2ccc(-c3ocnc3C)cc2)cn1 | < 1000
O=C(c1ccncc1)c1cc(Cl)ccc1NS(=O)(=O)c1ccc(-c2ccco2)cc1 | < 1000
Cc1nnc(-c2cccc(S(=O)(=O)Nc3ccc(Cl)cc3C(=O)c3ccncc3)c2)o1 | > 1000
CS(=O)(=O)c1ccc(S(=O)(=O)Nc2ccc(Cl)cc2C(=O)c2ccc(Cl)[n+]([O-])c2)cc1 | < 1000
CS(=O)(=O)c1ccc(S(=O)(=O)Nc2ccc(Cl)cc2C(=O)c2ccncc2)cc1 | > 1000
Cc1ccc(C(=O)c2cc(Cl)ccc2NS(=O)(=O)c2ccc(N3CCOCC3)cc2)c[n+]1[O-] | < 1000
CC(C)(C)c1ccc(S(=O)(=O)Nc2ccc(S(=O)(=O)N3CCCC3)cc2C(=O)c2cc[n+]([O-])cc2)cc1 | > 1000
CC(C)(c1ccc(S(=O)(=O)Nc2ccc(Cl)cc2C(=O)c2ccncc2)cc1)N1CCCCC1=O | < 1000
Cc1cc(C(=O)c2cc(Cl)ccc2NS(=O)(=O)c2ccc(OC(F)(F)F)cc2)ccn1 | < 1000
CC1(c2ccc(S(=O)(=O)Nc3ccc(Cl)cc3C(=O)c3ccncc3)cc2)CCOCC1 | < 1000
O=C(c1ccncc1)c1cc(Cl)ccc1NS(=O)(=O)c1ccc(N2CCNCC2)cc1 | > 1000
CC(=O)N1CCN(c2ccc(S(=O)(=O)Nc3ccc(Cl)cc3C(=O)c3ccncc3)cc2)CC1 | > 1000
CC(=O)c1ccc(S(=O)(=O)Nc2ccc(Cl)cc2C(=O)c2ccc(C)[n+]([O-])c2)cc1 | < 1000
Cn1nnnc1-c1ccc(S(=O)(=O)Nc2ccc(Cl)cc2C(=O)c2ccncc2)cc1 | > 1000
Cc1cc(C(=O)c2cc(Cl)ccc2NS(=O)(=O)c2ccc(OC(C)C)cc2)ccn1 | < 1000
